Measurements from patent publication US20170266266A1, “Functions of 55 Newfound Proteins and Their Medicinal Application in the Treatment and Prevention of Disease” (priority 2012, published 2017).

Assays:
[1] = tested on: atherosclerosis in ApoE knock out mouse on high fat diet
Excerpt: 10 ApoE ko mice were fed with regular chow diet and used as negative control group. 50 ApoE ko mice were fed with high fat diet (35% kcal fat, 1% cholesterol) for 8 weeks, and then the plasma samples were collected for lipid profile measurement before the treatment. 50 ApoE ko mice were assigned into 5 groups based on the fasting overnight plasma TC and HDL level.
5.2. Study Timeline: • 23 Dec. 2011: 60 ApoE mice arrived at chempartner and were housed in the animal facility in the building #3 for the acclimation. • 6 Jan. 2012: Measured the body weight for each mouse. 50 mice were fed with high fat diet and 10 mice were fed with normal chow diet. • 2 Mar. 2012: All mice were fasted over night and plasma samples (about 300 ul whole blood) were collected for lipid profile measurement before treatment with RAAS antibody. • 19 Mar. 2012 to 6 Apr. […] 2012: All mice were fasted over night and plasma sample for each mouse (about 300 ul whole blood) was collected for lipid profile measurement after 16 weeks treatment. Blood glucose was also measured for each mouse. • 9 Jul. 2012: The study was terminated after 16 weeks treatment. Measure BW, sacrificed each mouse, dissected the aorta, heart, liver and kidney and fixed them in 4% PFA.
Antibody products were administrated by intraperitoneal injection every two days (Monday, Wednesday, and Friday). and the positive compound was administered by p.o every day.
The body weight was weighed weekly during the period of treatment. The fasting overnight blood glucose was measured at the end of study by Roche glucometer.
About 300 ul of blood sample was collected from the orbital vein for each mouse and centrifuged at 7000 rpm for 5 min at 4E and the plasma lipid profile was measured by Roche Modular automatic biochemistry analyzer in DaAn Medical Laboratory
After RAAS antibody products treatment for 16 weeks, all mice were sacrificed. Measured body weight and collected blood sample for each mouse. Weighed liver weight and saved a tiny piece of liver into 4% paraformaldehyde (PFA) fixation solution for further analysis. At same time, take the photos with heart, lung, aortas and two kidneys.
5.8. Oil Red Staining Procedure: • 1. Sacrificed the mice and dissected the heart, aorta, and arteries under dissecting microscope. • 2. Briefly wash with PBS and fixed in 4% paraformaldehyde (PFA) overnight at 4[…]. • 3. Rinse with 60% isopropanol • 4. Stain with freshly prepared Oil Red O working solution 10 min. • 1). Oil red O stock stain: 0.5% powder in isopropanol • 2). Working solution: dilute with distilled water (3:2) and filter with membrane (0.22 um) • 5. Rinse with 60% isopropanol 10 second. • 6. Dispel the adherent bit fat outside of the aorta under the dissecting microscope. • 7. Cut the vascular wall gently and keep the integrated arteries using the micro scissors. • 8. Unfold the vascular inner wall with the cover slides and fix it by water sealing tablet.
Scanning the glasses slides with the Aperio ScanScope system and analyze with the image proplus software to measure the area of atherosclerotic plaque lesion. The results were expressed as the percentage of the total aortic surface area covered by lesions. The operation procedure of software was briefly described as follow: Converted the sys version photos into JPG version, then calibrated it and subsequently selected the red regions and then calculate the total area automatically by image proplus software.
The results were expressed as the Mean±SEM and statistically evaluated by student's t-test.

[2] = tested on: atherosclerosis in LDLR KO mice; experiment: Efficacy of AFOD RAAS 1 (APOA1) on atherosclerosis, LDLR KO mice; assay type: in vivo
[3] = tested on: SK-OV-3-luc ovarian cancer; experiment: Ovarian cancer survival in mice; assay type: in vivo; conditions: group mean, study still ongoing
Excerpt: Ovarian cancer study has been conducted at Wuxi AppTec under Dr. Yong Cang and the study is still ongoing as of Aug. 4, 2013. However in order to show the comparison mean days of the death of the mice in each group to compare with the positive drug group which has 76.8 days.
Bioluminescent images of RAAS-20120628-SK-OV-3-luc for all groups.
At day 63 after ovarian cancer has started an experiment of Kieu Hoang AFCC TM by oral application of four mice left from the entire group. That means that by day 63 ovarian cancer has already developed. In the beginning we forced the mice to drink without water, therefore the mice died in early stage.

human Apolipoprotein AI [APOAI]
plasma HDL ([1]; 16 week treatment): mild trend to decrease the HDL level
plaque area and percentage of plaque area from root to right renal artery ([1]; 16 weeks): no significant difference
plaque area and percentage of plaque area in arterial arch area ([1]; 16 weeks): No significant difference
plaque area and percentage of plaque area in total inner vascular area ([1]; 16 weeks): No significant difference
lipid profile ([1]; 16 weeks treatment): did not affect the lipid profile
plasma TG level ([1]; 16 weeks treatment): no effect
plaque lesion area of aorta ([1]; 16 weeks treatment, atorvastatin 40 mg/kg): did not reduce the plaque lesion area of aorta
deaths in treatment groups ([1]; after 15 doses, i.p. daily on weekdays): several mice died in the treatment groups
body weight vs vehicle group ([1]; mouse, in vivo): no significant difference
reduction and prevention of atherosclerosis [2]: effective in the reduction and prevention of atherosclerosis
Mean Survival Time [3]: 115.8 days
